One series relates to CYP1A2, CYP3A4. The note with it: cited from earlier work.
Series [1] relates to chicken liver microsomes (CYP450). As to the kind of experiment: in vitro. The protocol: (§1) A cocktail-approach for elucidating the metabolites profiling and CYP450 inhibition was conducted as in Lin et al. with minor changes. […] Probes substrates were dissolved in methanol as stock solution (1 mg/mL). All of them were diluted to the final concentrations (see Supplemental Materials) with incubation buffer and the percentage of organic solvent in the final incubation volume was below 1% (v/v). Briefly, the mixture was preincubated in a thermoshaker (Biosan, Geraardsbergen, Belgium) for 5 min at 37 °C prior to the initiation of the reaction with NADPH.4Na. After incubation, the mixture was terminated by 400 μL ice-cold acetonitrile. […] A volume of 5 µL of supernatant was analysed using UHPLC-MS/MS.
(§2) Enzyme kinetic studies were conducted for the six CYP450-related probes reactions. For each probe, the maximum rate of the Vmax and Km were obtained using GraphPad Prism v.8.0.2 software via Michaelis-Menten Kinetic model (La Jolla, CA, USA). The incubation times of 5, 10, 15, 30, 45 and 60 min were tested individually. A series of protein concentrations (0.05, 0.1, 0.2, 0.4, 0.6, 0.8 and 1 mg/mL) of CLM in the incubation mixture were conducted. Triplicate analyses were performed for each incubation system.

Series [2] relates to CYP1A2 (PH), CYP2B6 (BP), CYP2E1 (CLN), CYP2C9 (TBD), CYP2A6 (CAN), CYP3A4 (MDZ). As to the kind of experiment: in vitro. The note with it: chicken, pH 7.4. The protocol: as §1, §2
For series [3] the following is noted: in vivo, po; cited from earlier work.
A further series deals with broilers. Conditions: in vivo.
The conditions of series [4]: in vivo, 5 mg/kg; cited from earlier work.
The conditions of series [5]: in vivo, cited from earlier work.
The conditions of series [6]: rat, in vivo, po, cited from earlier work.
Series [7] concerns CYP450 in chicken liver microsomes. As to the kind of experiment: in vitro. Conditions: read-out: IC50 values in chicken liver microsomes (all CYP450 isoforms tested). Here is the method: (§3) A cocktail-approach for elucidating the metabolites profiling and CYP450 inhibition was conducted as in Lin et al. with minor changes. The incubation mixture contained 50 μL of 0.2 mg/mL of CLM, 10 μL of 0.1 M phosphate buffer (pH 7.4), 40 μL of 1 mM NADPH and six probe substrates with a total volume of 200 μL. The specific probe substrates used for each CYP450 isoenzyme in the incubation mixture were as follows: PH (CYP1A2), BP (CYP2B6), CLN (CYP2E1), TBD (CYP2C9), CAN (CYP2A6), and MDZ (CYP3A4). Probes substrates were dissolved in methanol as stock solution (1 mg/mL). All of them were diluted to the final concentrations (see Supplemental Materials) with incubation buffer and the percentage of organic solvent in the final incubation volume was below 1% (v/v). Briefly, the mixture was preincubated in a thermoshaker (Biosan, Geraardsbergen, Belgium) for 5 min at 37 °C prior to the initiation of the reaction with NADPH.4Na. After incubation, the mixture was terminated by 400 μL ice-cold acetonitrile. […] A volume of 5 µL of supernatant was analysed using UHPLC-MS/MS.
A general note: Liver microsomes are vesicles of endoplasmic reticulum, rich in cytochrome P450 enzymes.

The test system of series [8] is CYP2A6. As to the kind of experiment: in vitro. The note with it: read-out: IC50 for CYP2A6. The protocol: as §3
Details of series [9]: species or system broiler chickens (Ross 308). The note with it: in vivo.
The test system of series [10] is CYP2A6. The note with it: read-out: Km of CYP2A6; turkey; CAN as substrate; cited from earlier work.

Each structure is given as a SMILES string. “And” between values parts separate entries of the source, which are not always exact repeats. Equal values may be shown once. Read-outs that look alike come from different tables or passages of the source.

The text below walks through data of PMC10974768 (Toxins, 2024).

By Km is commonly meant the concentration of substrate that gives half-maximal velocity. As usually defined, the Vmax is the top rate of the reaction or transport when substrate is in excess. In general, Cmax refers to the maximum level reached in the sampled fluid or tissue. Broadly, the MRT is the average time that molecules of a dose stay in the body. The term Tmax denotes the time at which the peak concentration occurs. As a reminder, the IC50 is the concentration that inhibits the measured activity by half.

On to `CCOc1ccc(NC(C)=O)cc1` [Phenacetin], for which the Km was 98.1 ± 18.6 µM in the series with CYP1A2, CYP3A4; 20.7 µM in [2] (broiler); 20.7 µM in series [2]. For the same compound, in series [1], the Vmax came to 63.1 nmol/min/mg.

With `Cc1ncc2n1-c1ccc(Cl)cc1C(c1ccccc1F)=NC2` [Midazolam], the Vmax in series [1] amounted to 37.7 nmol/min/mg. The Km in series [2] (broiler) worked out at 3.3 µM; in series [2], 3.31 µM.

In the case of `COc1cc2c(c3oc(=O)c4c(c13)CCC4=O)[C@@H]1C=CO[C@@H]1O2` [AFB1, aflatoxin B1], in [3], the Cmax was 3.8 ± 0.9 ng/mL, the MRT was 11.73 ± 0.94 h, the T1/2e is 15.52 ± 0.51 h and the Tmax is 0.58 ± 0.17 h. Besides, the “adverse health effects in broilers” value in the series with broilers is recorded as “No significant adverse health effects”. Moreover, the “time for depletion in chicken liver, kidney, and muscle” value in [4] is 10 to 19 days. Besides, in [5] (human), the “AUC0–t” value is 0.0256 ± 0.0063 ng·h/mL, the T1/2β is given as 64.4 h and the Tmax is 1.02 ± 0.31 h. Also, the T1/2α in series [5] is listed as 2.86 h. Also, in [6] (1 mg/kg), the “AUC0–24” value was 45.59 ± 17.19 ng·h/mL; the CL is 372.2 ± 163 mL/min/kg; the Cmax is 93.42 ± 23.01 ng/mL and 90 ± 20 ng/mL; the Tmax result is given as “about 0.15 h”. Besides, in series [6] (1 mg/kg), the Vd is listed as 226.46 ± 100.76 L/kg. Further, the T1/2e in series [6] is recorded as 7.62 h. Also, in series [7], the IC50 was greater than 7.6 µM. Further, the IC50 in the series with CYP2A6 [8] stood at 24.1 µM. Besides, in series [9], the “AUCINF_obs, Control” value is 94.2 ± 40.4 ** h·ng/mL; the “AUCINF_obs, Treatment” value was found to be 265.8 ± 222.9 ng·h/mL; the “AUClast, Control” value is given as 87.5 ± 39.6 ** h·ng/mL; the “AUClast, Treatment” value was found to be 170 ± 103.6 ng·h/mL. Further, in [9], the “CL_F_obs, Control” value came to 238 ± 112 mL/min/kg; the “CL_F_obs, Treatment” value was found to be 157 ± 108 mL/min/kg; the “Cmax, Control” value came out at 29.3 ± 3.2 ng/mL; the “MRTlast, Control” value was determined as 4.7 ± 0.7 h. Also, in series [9], the “MRTlast, Treatment” value was 6.4 ± 3.2 h; the “T1/2λz, Treatment” value is reported as 1.4 ± 0.5 h; the “Tmax, Treatment” value was 0.3 ± 0.1 h; the “Vd_F_obs, Control” value was found to be 14.8 ± 4.8 L/kg. Moreover, in [9], the “Vd_F_obs, Treatment” value is given as 18.4 ± 7.7 L/kg; the “increase of AUClast of AFB1 by TIA” value was found to be 194%; the “increase of mean residence time (MRT) of AFB1 by TIA” value came to 136%.

Regarding `O=c1ccc2ccccc2o1` [Coumarin], the Km with CYP2A6 [10] is 33.6 ± 8.52 µM; in series [2] (broiler), 56.1 µM; in [2] it was 56.1 µM. The Vmax in series [1] (chicken liver microsomes, Michaelis-Menten, PH (CYP1A2), BP (CYP2B6), CLN (CYP2E1), TBD (CYP2C9), CAN (CYP2A6), MDZ (CYP3A4), n = 3) came to 190.8 nmol/min/mg.

On to `CCCCNC(=O)NS(=O)(=O)c1ccc(C)cc1` [Tolbutamide], for which the Vmax in [1] turned out to be 159.4 nmol/min/mg.
